In paper PMC5826802 (Analytical biochemistry, 2017):
Blank lines part the entries; values can stand above or below the compound they belong to.

Tests used:
PARP15 [1] = target: T1, PARP15 (Homo sapiens, UniProt Q460N3); assay: MLISA inhibition of PARP15-catalyzed automodification; assay type: biochemical; conditions: for inhibition effects on PARP15 activity: at concentrations up to 100 μM
T1 sequence (Q460N3 481-678): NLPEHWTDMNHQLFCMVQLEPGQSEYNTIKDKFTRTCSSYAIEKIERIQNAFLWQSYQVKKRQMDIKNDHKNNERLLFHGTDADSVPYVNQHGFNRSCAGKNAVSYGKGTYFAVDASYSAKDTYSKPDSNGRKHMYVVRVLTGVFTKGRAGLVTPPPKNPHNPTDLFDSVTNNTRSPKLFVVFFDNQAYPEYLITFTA

PARP15 [2] = conditions: read-out: Km of PARP15 for automodification; reported previously; cited from earlier work

- IC50 (PARP15 [1]): 8.5 ± 2.7 µM
Structure (SMILES): Oc1cccc2c(O)nccc12 [1,5-Isoquinolinediol, 1,5-isoquinolinediol]

- pIC50 (PARP15 [1]; PARP15, 500 nM enzyme, 500 μM NAD+): 5.1
Structure (SMILES): Cc1nc2c(c(=O)[nH]1)CSCC2 [DR2313]

- inhibition effects on PARP15 activity (PARP15 [1]): no significant inhibition effects
Structure (SMILES): Nc1ncnc2[nH]cnc12 [Adenine, adenine]

- inhibition effects on PARP15 activity (PARP15 [1]): no significant inhibition effects
Structure (SMILES): CN(C)c1ccc(O)c2c1C[C@H]1C[C@H]3[C@H](N(C)C)C(O)=C(C(N)=O)C(=O)[C@@]3(O)C(O)=C1C2=O [Minocin]

Structure (SMILES): NC(=O)c1ccc[n+]([C@@H]2O[C@H](COP(=O)([O-])OP(=O)(O)OC[C@H]3O[C@@H](n4cnc5c(N)ncnc54)[C@H](O)[C@@H]3O)[C@@H](O)[C@H]2O)c1 [NAD^+, nicotinamide adenine dinucleotide]
- Km (PARP15 [2]): 5.8 ± 1.9 µM

- inhibition effects on PARP15 activity (PARP15 [1]): no significant inhibition effects
Structure (SMILES): Oc1nc(-c2ccc(C(F)(F)F)cc2)nc2c1CSCC2 [XAV939]

- IC50 (PARP15 [1]): 1.5 ± 0.5 µM
Structure (SMILES): O=c1[nH]c2ccccc2c2ccccc12 [6(5H)-Phenanthridinone, 6(5H)-phenanthridinone]
